Values joined by “and” are separate entries in the source; they are usually repeats but may differ in a detail not shown here. Equal values may be shown once.
Legend:
Assay type in all cases: in vivo
[1] = system: Viola arvensis (field violet, VIOAR); test: Greenhouse postemergence trial VIOAR; details: for % visual injury Obs: alone; for % visual injury, Obs: applied alone; for % visual injury: c1-3 Compound A 7.5/10/15
[2] = system: Cyanus segetum (cornflower, CENCY); test: Greenhouse postemergence trial CENCY; details: CENCY; for % visual injury Obs: alone; for % visual injury, Obs: applied alone
Method: (§1) Seeds of the desired test plant species were planted in a 90:10% v/v (volume/volume) mixture of PRO-MIX® BX (Premier Tech Horticulture, Quakertown, PA, USA) and PROFILE® GREENS GRADE™ (Profile Products LLC, Buffalo Grove, IL, USA) planting mixture, which typically has a pH of 5.2 to 6.2 and an organic matter content of at least 50 percent, in plastic pots with a surface area of 103.2 square centimeters (cm^2). […] The plants were grown for 7-36 days (d) in a greenhouse with an approximate 14-hour (h) photo-period which was maintained at about 23° C. during the day and 22° C. during the night. Nutrients and water were added on a regular basis and supplemental lighting was provided with overhead metal halide 1000-Watt lamps as necessary. The plants were employed for testing when they reached the second or third true leaf stage.
(§2) Emulsifiable concentrates of each of each pyridine carboxylate herbicide (Compound A or Compound B) were prepared at 100 grams acid equivalent per liter (g ae/L). The emulsifiable concentrates also included a safener, cloquintocet-mexyl, at 120 grams active ingredient per liter (g ai/L), unless otherwise noted below. An aliquot of each emulsifiable concentrate was placed in a 25 mL glass vial and diluted with an aqueous mixture of 1.25% (v/v) ACTIROB® B esterified rapeseed oil (Bayer Crop Science, Research Triangle Park, NC, USA) or MSO® Concentrate with LECI-TECH® methylated soybean oil (Loveland Products, Loveland, CO, USA) to obtain concentrated stock solutions at the highest application rate for each herbicide, based upon a 12 milliliter (mL) application volume at a rate of 187 liters per hectare (L/ha). The concentrated stock solutions were further diluted with an aqueous mixture of 1.25% v/v ACTIROB® B or MSO® Concentrate with LECI-TECH® to obtain stock solutions at reduced application rates for each herbicide. Spray solutions of the herbicide combinations (Compound A or Compound B plus synthetic auxin herbicide or auxin transport inhibitor) were prepared by adding weighed amounts or aliquots of the synthetic auxin herbicide or auxin transport inhibitor to the stock solutions of Compound A or Compound B to form 12-mL spray solutions in two-way combinations.
(§3) The spray solutions were applied to the plant material with an overhead Mandel track sprayer equipped with 8002E nozzles calibrated to deliver 187 L/ha over an application area of 0.503 square meters (m^2) at a spray height of 18 inches (43 centimeters (cm)) above the average plant canopy. Control plants were sprayed in the same manner with the solvent blank. All pyridine carboxylate herbicide (component a) application rates are given as “g ae/ha” and all synthetic auxin herbicide or auxin transport inhibitor (component b) application rates are given as “g ai/ha.”
(§4) The treated plants and control plants were placed in a greenhouse as described above and watered by sub-irrigation to prevent wash-off of the test compounds. After 20-22 d, the condition of the test plants as compared with that of the control plants was determined visually and scored on a scale of 0 to 100 percent where 0 corresponds to no injury and 100 corresponds to complete kill.

[3] = system: Triticum aestivum (winter wheat, TRZAW); test: Greenhouse postemergence crop phytotoxicity TRZAW; details: for % visual injury Obs / visual injury, Obs / % visual injury, Obs: TRZAW; for % visual injury, Obs: applied alone; for % visual injury (crop phytotoxicity): c1-3 Compound A 7.5/10/15
Method: as §1, §2, §3, §4

[4] = system: Sinapis arvensis (wild mustard, SINAR); test: Greenhouse postemergence trial SINAR
Method: The plants were grown for 7-36 days (d) in a greenhouse with an approximate 14-hour (h) photo-period which was maintained at about 23° C. during the day and 22° C. during the night. Nutrients and water were added on a regular basis and supplemental lighting was provided with overhead metal halide 1000-Watt lamps as necessary. The plants were employed for testing when they reached the second or third true leaf stage.
The emulsifiable concentrates also included a safener, cloquintocet-mexyl, at 120 grams active ingredient per liter (g ai/L), unless otherwise noted below.
Control plants were sprayed in the same manner with the solvent blank. All pyridine carboxylate herbicide (component a) application rates are given as “g ae/ha” and all synthetic auxin herbicide or auxin transport inhibitor (component b) application rates are given as “g ai/ha.”
as §4

[5] = system: Rumex obtusifolius (broad-leaf dock, RUMOB); test: Greenhouse postemergence trial RUMOB; details: Compound A 10 g/ha
Method: as §1, §2, §3, §4

[6] = system: Cirsium arvense (Canadian thistle, CIRAR); test: Greenhouse postemergence trial CIRAR
Method: as §1, §2, §3, §4

[7] = system: Cyperus esculentus (nutsedge, CYPES); test: Greenhouse postemergence trial CYPES; details: Compound A 10 g/ha
Method: as §1
Emulsifiable concentrates of each of each pyridine carboxylate herbicide (Compound A or Compound B) were prepared at 100 grams acid equivalent per liter (g ae/L). The emulsifiable concentrates also included a safener, cloquintocet-mexyl, at 120 grams active ingredient per liter (g ai/L), unless otherwise noted below. An aliquot of each emulsifiable concentrate was placed in a 25 mL glass vial and diluted with an aqueous mixture of 1.25% (v/v) ACTIROB® B esterified rapeseed oil (Bayer Crop Science, Research Triangle Park, NC, USA) or MSO® Concentrate with LECI-TECH® methylated soybean oil (Loveland Products, Loveland, CO, USA) to obtain concentrated stock solutions at the highest application rate for each herbicide, based upon a 12 milliliter (mL) application volume at a rate of 187 liters per hectare (L/ha). The concentrated stock solutions were further diluted with an aqueous mixture of 1.25% v/v ACTIROB® B or MSO® Concentrate with LECI-TECH® to obtain stock solutions at reduced application rates for each herbicide. Spray solutions of the herbicide combinations (Compound A or Compound B plus synthetic auxin herbicide or auxin transport inhibitor) were prepared by adding weighed amounts or aliquots of the synthetic auxin herbicide or auxin transport inhibitor to the stock solutions of Compound A or Compound B to form 12-mL spray solutions in two-way combinations. […]
as §4

[8] = system: Veronica persica (bird's-eye speedwell, VERPE); test: Greenhouse postemergence trial VERPE; details: for % visual injury Obs / visual injury, Obs / % visual injury, Obs: VERPE; for % visual injury, Obs: applied alone
Method: as §1, §2, §3, §4

[9] = system: Hordeum vulgare (winter barley, HORVW); test: Greenhouse postemergence crop phytotoxicity HORVW; details: for % visual injury Obs / visual injury, Obs / % visual injury, Obs: HORVW; for % visual injury, Obs: applied alone; for % visual injury (crop phytotoxicity): c1-3 Compound A 7.5/10/15
Method: as §1, §2, §3, §4

[10] = system: Veronica hederifolia (ivyleaf speedwell, VERHE); test: Greenhouse postemergence trial VERHE; details: VERHE; for % visual injury, Obs: applied alone
[11] = system: Oryza sativa (common rice, ORYSA); test: Greenhouse postemergence trial ORYSA; details: Compound A 10 g/ha
Method: as §1
Emulsifiable concentrates of each of each pyridine carboxylate herbicide (Compound A or Compound B) were prepared at 100 grams acid equivalent per liter (g ae/L). […]
as §4

[12] = c4-5 Fluroxypyr-MHE 100/140, c6-8, c9-11 A 7.5/10/15 + Fluroxypyr-MHE 100, 140 g/ha
[13] = c4-6 Clopyralid 30/60/120, c7-9, c10-12, c13-15 A 7.5/10/15 + Clopyralid 30, 60, 120 g/ha
[14] = c4 Aminopyralid 5, c5-7 A 7.5/10/15 + Aminopyralid 5 g/ha
[15] = c4 Halauxifen-methyl 6, c5-7 A 7.5/10/15 + Halauxifen-methyl 6 g/ha

## N#CCOC(=O)c1nc(-c2ccc3cc[nH]c3c2F)c(F)c(N)c1Cl [Compound A, cyanomethyl 4-amino-3-chloro-5-fluoro-6-(7-fluoro-1H-indol-6-yl)pyridine-2-carboxylate]
[1]; VIOAR, Compound A 10 g/ha alone
  visual injury, Obs: 10%
[1]; VIOAR, Compound A 15 g/ha alone
  visual injury, Obs: 15%
[1]; VIOAR, 10 g/ha
  % visual injury Obs: 10%
  % visual injury, Obs: 10%
[1]; VIOAR, 15 g/ha
  % visual injury Obs: 15%
  % visual injury, Obs: 15%
[1]; Viola arvensis, post-emergence, VIOAR, Compound A 7.5 g/ha, read-out: % visual injury Obs
  pest or weed control at […]: 10%
[1]; Viola arvensis, post-emergence, VIOAR, Compound A 10 g/ha, read-out: % visual injury Obs
  pest or weed control at 10 g/ha: 10%
[1]; Viola arvensis, post-emergence, VIOAR, Compound A 15 g/ha, read-out: % visual injury Obs
  pest or weed control at 15 g/ha: 15%
[1]; [12]
  % visual injury: 5%
[1]; [13]
  % visual injury: 5%
[1]; [14]
  % visual injury: 5%
[1]; [15]
  % visual injury: 5%
[2]; Compound A 10 g/ha alone
  visual injury, Obs: 100%
[2]; Compound A 15 g/ha alone
  visual injury, Obs: 100%
[2]; 10 g/ha
  % visual injury Obs: 100%
  % visual injury, Obs: 100%
[2]; 15 g/ha
  % visual injury Obs: 100%
  % visual injury, Obs: 100%
[2]; Centaurea cyanus, post-emergence, Compound A 7.5 g/ha, read-out: % visual injury Obs
  pest or weed control at […]: 100%
[2]; Centaurea cyanus, post-emergence, Compound A 10 g/ha, read-out: % visual injury Obs
  pest or weed control at 10 g/ha: 100%
[2]; Centaurea cyanus, post-emergence, Compound A 15 g/ha, read-out: % visual injury Obs
  pest or weed control at 15 g/ha: 100%
[3]; Compound A 10 g/ha
  % visual injury Obs: 0%
[3]; Compound A 10 g/ha alone
  visual injury, Obs: 0%
[3]; Compound A 15 g/ha
  % visual injury Obs: 0%
[3]; Compound A 15 g/ha alone
  visual injury, Obs: 0%
[3]; alone, 10 g/ha
  % visual injury Obs: 0%
[3]; alone, 15 g/ha
  % visual injury Obs: 0%
[3]; 10 g/ha
  % visual injury, Obs: 0%
[3]; 15 g/ha
  % visual injury, Obs: 0%
[3]; [12]
  % visual injury (crop phytotoxicity): 0%
[3]; [13]
  % visual injury (crop phytotoxicity): 0%
[3]; [14]
  % visual injury (crop phytotoxicity): 0%
[3]; [15]
  % visual injury (crop phytotoxicity): 0%
[4]; Compound A 10 g/ha
  SINAR Obs (% visual injury): 100% and 90%
[4]; Compound A 10 g/ha (Table 42)
  SINAR % visual injury Obs: 100%
[4]; Compound A 10 g/ha (Table 43)
  SINAR % visual injury Obs: 100%
[4]; Compound A 10 g/ha (Table 44)
  SINAR % visual injury Obs: 100%
[4]; Mutarda arvensis, post-emergence, SINAR, Compound A 7.5 g/ha, read-out: % visual injury Obs
  pest or weed control at […]: 90%
[4]; Mutarda arvensis, post-emergence, SINAR, Compound A 10 g/ha, read-out: % visual injury Obs
  pest or weed control at 10 g/ha: 90%
[4]; Mutarda arvensis, post-emergence, SINAR, Compound A 15 g/ha, read-out: % visual injury Obs
  pest or weed control at 15 g/ha: 100%
[4]; SINAR, Compound A 10 g/ha
  % visual injury Obs: 90%
  % visual injury, Obs: 100% and 88%
[4]; SINAR, Compound A 10 g/ha alone
  visual injury, Obs: 90%
[4]; SINAR, Compound A 15 g/ha alone
  visual injury, Obs: 100%
[4]; SINAR, alone, 10 g/ha
  % visual injury (Obs): 90% and 88%
  % visual injury Obs: 90%
[4]; SINAR, alone, 15 g/ha
  % visual injury Obs: 100%
[4]; SINAR, applied alone, 10 g/ha
  % visual injury, Obs: 90% and 88%
[4]; SINAR, applied alone, 15 g/ha
  % visual injury, Obs: 100%
[5]
  RUMOB Obs (% visual injury): 10%
[5]; without safener
  RUMOB Obs (% visual injury): 35%
[5]; RUMOB
  % visual injury, Obs: 35%
[6]; CIRAR, Compound A 10 g/ha
  % visual injury, Obs: 20% and 30% and 28%
[6]; CIRAR, Compound A 10 g/ha alone
  visual injury, Obs: 50%
[6]; CIRAR, Compound A 15 g/ha alone
  visual injury, Obs: 60%
[6]; CIRAR, alone 10 g/ha
  % visual injury (Obs): 23% and 30%
  % visual injury Obs: 50%
[6]; CIRAR, alone, 15 g/ha
  % visual injury Obs: 60%
[6]; CIRAR, applied alone, 10 g/ha
  % visual injury, Obs: 50% and 55%
[6]; CIRAR, applied alone, 15 g/ha
  % visual injury, Obs: 60%
[6]; Cirsium arvense, post-emergence, CIRAR, Compound A 7.5 g/ha, read-out: % visual injury Obs
  pest or weed control at […]: 30%
[6]; Cirsium arvense, post-emergence, CIRAR, Compound A 10 g/ha, read-out: % visual injury Obs
  pest or weed control at 10 g/ha: 50%
[6]; Cirsium arvense, post-emergence, CIRAR, Compound A 15 g/ha, read-out: % visual injury Obs
  pest or weed control at 15 g/ha: 60%
[6]; Compound A 10 g/ha
  CIRAR Obs (% visual injury): 20% and 23%
[6]; Compound A 10 g/ha (Table 42)
  CIRAR % visual injury Obs: 20%
[6]; Compound A 10 g/ha (Table 43)
  CIRAR % visual injury Obs: 20%
[6]; Compound A 10 g/ha (Table 44)
  CIRAR % visual injury Obs: 20%
[6]; Compound A 10 g/ha, without safener
  CIRAR Obs (% visual injury): 28%
[7]; CYPES
  % visual injury, Obs: 0%
[7]; without safener
  CYPES Obs (% visual injury): 0%
[8]; Compound A 10 g/ha
  % visual injury Obs: 85%
[8]; Compound A 10 g/ha alone
  visual injury, Obs: 85%
[8]; Compound A 15 g/ha
  % visual injury Obs: 95%
[8]; Compound A 15 g/ha alone
  visual injury, Obs: 95%
[8]; alone, 10 g/ha
  % visual injury Obs: 85%
[8]; alone, 15 g/ha
  % visual injury Obs: 95%
[8]; 10 g/ha
  % visual injury, Obs: 85%
[8]; 15 g/ha
  % visual injury, Obs: 95%
[8]; Veronica persica, post-emergence, VERVE, Compound A 7.5 g/ha, read-out: % visual injury Obs
  pest or weed control at […]: 80%
[8]; Veronica persica, post-emergence, VERVE, Compound A 10 g/ha, read-out: % visual injury Obs
  pest or weed control at 10 g/ha: 85%
[8]; Veronica persica, post-emergence, VERVE, Compound A 15 g/ha, read-out: % visual injury Obs
  pest or weed control at 15 g/ha: 95%
[9]; Compound A 10 g/ha
  % visual injury Obs: 0%
[9]; Compound A 10 g/ha alone
  visual injury, Obs: 0%
[9]; Compound A 15 g/ha
  % visual injury Obs: 0%
[9]; Compound A 15 g/ha alone
  visual injury, Obs: 0%
[9]; alone, 10 g/ha
  % visual injury Obs: 0%
[9]; alone, 15 g/ha
  % visual injury Obs: 0%
[9]; 10 g/ha
  % visual injury, Obs: 0%
[9]; 15 g/ha
  % visual injury, Obs: 0%
[9]; [12]
  % visual injury (crop phytotoxicity): 0%
[9]; [13]
  % visual injury (crop phytotoxicity): 0%
[9]; [14]
  % visual injury (crop phytotoxicity): 0%
[9]; [15]
  % visual injury (crop phytotoxicity): 0%
[10]; Compound A 10 g/ha
  % visual injury Obs: 75%
[10]; Compound A 10 g/ha alone
  visual injury, Obs: 75%
[10]; Compound A 15 g/ha alone
  visual injury, Obs: 80%
[10]; alone, 10 g/ha
  % visual injury Obs: 75%
[10]; alone, 15 g/ha
  % visual injury Obs: 80%
[10]; 10 g/ha
  % visual injury, Obs: 75%
[10]; 15 g/ha
  % visual injury, Obs: 80%
[10]; Veronica hederifolia, post-emergence, Compound A 7.5 g/ha, read-out: % visual injury Obs
  pest or weed control at […]: 65%
[10]; Veronica hederifolia, post-emergence, Compound A 10 g/ha, read-out: % visual injury Obs
  pest or weed control at 10 g/ha: 75%
[10]; Veronica hederifolia, post-emergence, Compound A 15 g/ha, read-out: % visual injury Obs
  pest or weed control at 15 g/ha: 80%
[11]
  ORYSA Obs (% visual injury): 10%

Source: patent US12568967B2, “Compositions comprising pyridine carboxylate herbicides with synthetic auxin herbicides or auxin transport inhibitors” (priority 2018, dated 2026)
